{"source": "patent US8293789B2", "about": "“Method of preparing a latanoprost opthalmic solution and the resulting solution” (priority 2004, dated 2012)", "origin": "cited, not measured here", "key": {"[1]": {"system": "patients with open angle glaucoma or ocular hypertension", "conditions": "for circadian / nocturnal reduction of intraocular pressure: day versus night"}, "[2]": {"test": "not given", "remark": "listed apart in the source"}}, "data": [{"smiles": "CC(C)(C)NC[C@H](O)COc1nsnc1N1CCOCC1", "note": "[timolol]", "values": [{"measurement": "circadian / nocturnal reduction of intraocular pressure", "setting": "[1]", "result": "less effective during the night"}]}, {"smiles": "CCN[C@H]1C[C@H](C)S(=O)(=O)c2sc(S(N)(=O)=O)cc21", "note": "[Dorzolamide]", "values": [{"measurement": "circadian / nocturnal reduction of intraocular pressure", "setting": "[1]", "result": "less effective than latanoprost"}]}, {"smiles": "CC(C)OC(=O)CCC/C=C\\C[C@@H]1[C@@H](CC[C@@H](O)CCc2ccccc2)[C@H](O)C[C@@H]1O", "note": "[latanoprost, isopropilic ester of the prostaglandin F2α 17-phenyl-13,14dihydro]", "values": [{"measurement": "solubility in organic solvents", "setting": "acetone, ethanol, ethyl acetate, isopropanol, methanol and octanol", "result": "freely soluble"}, {"measurement": "solubility in acetonitrile", "setting": "acetonitrile", "result": "highly soluble"}, {"measurement": "solubility in water", "setting": "water", "result": "practically insoluble"}, {"measurement": "time to peak concentration in the aqueous humor", "setting": "[2]; after local administration", "result": 2, "unit": "h"}, {"measurement": "plasmatic mid life", "setting": "[2]; in humans, sentence follows statements on latanoprost acid", "result": 17, "unit": "min"}, {"measurement": "time to maximum concentration in the aqueous humor", "setting": "[2]; studies on humans, following administration", "result": "approximately two"}, {"measurement": "circadian / nocturnal reduction of intraocular pressure", "setting": "[1]", "result": "more uniform circadian reduction"}, {"measurement": "effectiveness of one sole daily application versus double daily application of other glaucoma agents", "setting": "[1]; latanoprost 0.005%, patients with open angle glaucoma or ocular hypertension", "result": "at least as effective"}, {"measurement": "patients with a reduction in the intraocular pressure of at least 30%", "setting": "[1]; patients treated with latanoprost, after 6 months of treatment", "result": 52, "unit": "%"}, {"measurement": "effectiveness as hypotensive agent compared with unoprostone", "setting": "[1]; patients, versus unoprostone", "result": "better results"}]}]}
